{
  "source": "patent US8404665B2",
  "about": "“In vivo use of glutathione S-transferase activated nitric oxide donors” (University of Utah Research Foundation, priority 2002, dated 2013)",
  "key": {"HL-60 cells [1]": {"tested_on": "HL-60 cells", "assay": "Apoptosis in HL-60 cells by flow cytometry (sub-G0 fraction)", "assay_type": "cell-based, human", "settings": "for percentage of apoptotic cells (sub-G0 fraction): three days post-addition, control 7 percent", "method": "Cell Lines and Culture Conditions. HL-60, DLD1, and U937 cells were obtained from ATCC (Rockville, Md.). Meth A cells were from Dr. Wolfram Samlowski (University of Utah, Salt Lake City, Utah). The PPC-1 cell line was provided by Dr. Graeme Bolger (University of Alabama, Birmingham, Ala.). For the cell growth and apoptosis experiments, cells were cultured at a density of 150,000 cells/ml in RPMI-1640 with 10% fetal bovine serum at 37° C. in a 5% CO2 humidified atmosphere. Agents were added at the indicated concentrations 24 h after culture initiation. At the indicated time intervals, cells were harvested and washed twice in phosphate buffered saline (PBS) prior to processing for analysis of growth, differentiation, and apoptosis.\n(§1) Cell Growth, Differentiation and Apoptosis Assays. The number of viable cells was determined using the MTT assay according to the manufacturer's protocol (Promega, Madison, Wis.) or using a Coulter counter. Briefly, a MTT assay is an analytical technique that uses the dye dimethylthiazolyl-diphenyltetrazolium (MTT) which turns from yellow to brownish-purple as it is reduced in the mitochondria of living cells. The assay is useful in calorimetric quantitation of cell viability and proliferation. In contrast, cell differentiation was evaluated using Wright and Non-Specific Esterase (NSE) staining of cells collected on microscope slides by cytospin as previously described (Magrinat, G. et al. (1992) Blood 80: 1880-1884). Apoptosis was assayed by flow cytometry and by determining DNA fragmentation using agarose gel electrophoresis as previously described (Shami, P. J. et al. (1998) Leukemia 12: 1461-1466). For the flow cytometry assay, we used the propidium iodide staining method of Nicoletti et al. (Nicoletti, I. et al. (1991) J. Immunol. Methods 139: 271-279).\nTo determine if JS-K could induce apoptosis in leukemia cells, it was added to HL-60 cells at concentrations of 0.5 and 1.0 μM. Three days post-addition, the percentage of apoptotic cells was determined by measuring the number of cells in the sub-G0 fraction of the cell cycle using flow cytometry. […]"}, "Hydrolysis of JS-K": {"assay": "Hydrolysis of JS-K", "assay_type": "physicochemical", "method": "For increased JS-K consumption rate at an initial concentration of 50 uM in 0.1 M phosphate (pH=7.4) at 37° C. as a function of increasing GSH concentration. The value of k1 obtained from the intercept appeared to be in statistical agreement with the rate constant for JS-K hydrolysis (1×10^−6 s^−1) measured separately in the absence of GSH. The small amount of the hydrolysis product (2,4-dinitrophenol) (data not shown) was apparently formed in the dimethyl sulfoxide stock solution, which in this case had been stored in the refrigerator with intermittent use during several weeks."}, "HL-60 cells [2]": {"tested_on": "HL-60 cells", "assay": "HL-60 cell differentiation (Wright and non-specific esterase staining)", "assay_type": "cell-based, human", "settings": "0.5 uM, 3-5 days", "method": "as §1\nHL-60 cells were treated with JS-K at a concentration of 0.5 uM for 3-5 days. […] JS-K appears to induce cell differentiation."}, "[3]": {"tested_on": "58 human cancer cell lines", "assay_type": "cell-based", "method": "Anticancer screen of JS-K against the NCI 58 human cancer cell lines. Cells initially maintained in multiple T150 tissue-culture flasks were detached from the flasks by addition of 2-3 ml of 0.05% trypsin-EDTA when cells reached 70-90% confluency. Thereafter, trypsin was inactivated by addition of 10 ml of RPMI 1640 medium containing 5% fetal bovine serum. All cells were then transferred and seeded onto 96-well microtiter plates at densities between 5,000 and 30,000 cells per well. Three cell lines were inoculated per plate. The cells were grown in RPMI 1640 supplemented with 5% fetal bovine serum and 2 mM L-glutamine for 24 h at 37° C. to allow stabilization prior to addition of JS-K. A total of 58 human cancer cell lines were used for the broad screening. The stock solution of JS-K in DMSO was serially diluted with the RPMI 1640 medium and added immediately to the microtiter plates to produce five concentrations of JS-K, i.e., 10^−4, 10^−5, 10^−6, 10^−7 and 10^−8 M. JS-K was incubated with cells for 48 h.\nAt the end of incubation, the cells were fixed in situ by 10% trichloroacetic acid, and washed five times with water and dried. Sulforhodamine B (0.4% in 1% acetic acid), a protein stain binding to basic amino acids of cellular macromolecules, was added to each well, and incubated for 10 min at room temperature. Unbound Sulforhodamine B is removed by washing five times with acetic acid. Then the plates were air-dried. Bound stain is solubilized with Tris buffer, and the optical densities were read at 515 nm. The optical densities generated from Sulforhodamine B staining are a function of cell mass and growth rate (Monks et al., 1991). Thus cells with small mass (e.g., leukemias) or relatively slow division rate (e.g., renal RXF393 and lung cancer HOP-92) were inoculated at the relatively high densities of 20,000-30,000 cells per well, while more rapidly dividing cells (e.g., colon HT29 and HCT-116 cell lines, and lung NCI-H460 cells) were inoculated at 5,000 cells per well. For the suspended leukemia cell subpanel, the cells were fixed to the bottom of the microtiter well by adding cold trichloroacetic acid (final concentration 16%) at the end of the drug-incubation period.\nThe dose-response curve is created by plotting the % growth against the log10 of the corresponding JS-K concentrations for each cell line by disease subpanel group. Three horizontal lines are provided at the % growth values of 50, 0 and −50, respectively. Thus the molar JS-K concentrations corresponding to points where the curves cross these lines represent the interpolated values that cause 50% growth inhibition (GI50, the JS-K concentration causing a 50% reduction in the net protein increase in control cells), total growth inhibition (TGI, the JS-K concentration causing amount of protein at the end of incubation to be equal to the amount at the beginning) and 50% cell killing (LC50, the JS-K concentration causing a 50% reduction in the protein of treated cells at the end of the drug incubation, compared with that at the beginning, indicating a net loss of cells following drug treatment), respectively."}, "[4]": {"settings": "mouse, in vivo, iv"}},
  "data": [
    {"smiles": "CCOC(=O)N1CCN(/[N+]([O-])=N/Oc2ccc([N+](=O)[O-])cc2[N+](=O)[O-])CC1", "note": "[JS-K, O^2-(2,4-dinitrophenyl) 1-[(4-ethoxycarbonyl)piperazin-1-yl]diazen-1-ium-1,2-diolate]", "values": [
      {"measurement": "percentage of apoptotic cells (sub-G0 fraction)", "setting": "HL-60 cells [1]; 0.5 μM", "value": "27±3", "unit": "%"},
      {"measurement": "percentage of apoptotic cells (sub-G0 fraction)", "setting": "HL-60 cells [1]; 1.0 μM", "value": "43±2", "unit": "%"},
      {"measurement": "percentage of apoptotic cells", "setting": "HL-60 cells [1]; HL-60, flow cytometry, co-administration of C-VAD-FMK and JS-K, p=0.44 vs untreated", "value": "2.65+/−0.28%"},
      {"measurement": "resistance to hydrolysis", "setting": "Hydrolysis of JS-K; 0.1 M phosphate pH 7.4, 37° C.", "value": "resistant to simple hydrolysis"},
      {"measurement": "rate constant for JS-K hydrolysis", "setting": "Hydrolysis of JS-K; measured separately in the absence of GSH, pH 7.4, 37° C.", "value": "1e-06", "unit": "s⁻¹"},
      {"measurement": "hydrolysis", "setting": "Hydrolysis of JS-K; pH=12", "value": "much more facile"},
      {"measurement": "morphology by Wright stain", "setting": "HL-60 cells [2]", "value": "morphologic changes consistent with a monocytic phenotype"},
      {"measurement": "percentage of HL-60 cells expressing NSE", "setting": "HL-60 cells [2]; from 1", "value": 40, "unit": "%"},
      {"measurement": "CC50", "setting": "[3]", "value": 29.5, "unit": "µM"},
      {"measurement": "relative sensitivity to cytostatic and cytotoxic effects", "setting": "[3]", "value": "most sensitive"},
      {"measurement": "GI50", "setting": "[3]; 58 human cell lines, 48 h", "value": 1.3, "unit": "µM"},
      {"measurement": "mean TGI", "setting": "[3]; 58 human cell lines, 48 h", "value": 6.6, "unit": "µM"},
      {"measurement": "inhibition against prostate cancer cell lines", "setting": "[3]; prostate cancer cell lines", "value": "moderate inhibition"},
      {"measurement": "LC50s", "setting": "[3]; some cell lines within the colon, melanoma and breast cancer subpanels", "value": "more than 100 μM"},
      {"measurement": "peak blood concentration the dose would achieve", "setting": "[4]", "value": "approximately 68 μM"}
    ]}
  ]
}
